Consider 39 compounds from patent US6583179B2, “Substituted aminoalkylamide derivatives as antagonists of follicle stimulating hormone” (Ortho-McNeil Pharmaceutical, Inc., priority 1999, dated 2003).

The term EC50 denotes the concentration at which the effect is half-maximal.

The target in the experiment is T1, human FSH receptor (Homo sapiens, UniProt P23945).
T1 construct: expressed in transfected cells; host or cells: Chinese Hamster Ovary cells (K-1; ATCC), line rhFSHR-cLUC
T1 sequence (P23945 18-695): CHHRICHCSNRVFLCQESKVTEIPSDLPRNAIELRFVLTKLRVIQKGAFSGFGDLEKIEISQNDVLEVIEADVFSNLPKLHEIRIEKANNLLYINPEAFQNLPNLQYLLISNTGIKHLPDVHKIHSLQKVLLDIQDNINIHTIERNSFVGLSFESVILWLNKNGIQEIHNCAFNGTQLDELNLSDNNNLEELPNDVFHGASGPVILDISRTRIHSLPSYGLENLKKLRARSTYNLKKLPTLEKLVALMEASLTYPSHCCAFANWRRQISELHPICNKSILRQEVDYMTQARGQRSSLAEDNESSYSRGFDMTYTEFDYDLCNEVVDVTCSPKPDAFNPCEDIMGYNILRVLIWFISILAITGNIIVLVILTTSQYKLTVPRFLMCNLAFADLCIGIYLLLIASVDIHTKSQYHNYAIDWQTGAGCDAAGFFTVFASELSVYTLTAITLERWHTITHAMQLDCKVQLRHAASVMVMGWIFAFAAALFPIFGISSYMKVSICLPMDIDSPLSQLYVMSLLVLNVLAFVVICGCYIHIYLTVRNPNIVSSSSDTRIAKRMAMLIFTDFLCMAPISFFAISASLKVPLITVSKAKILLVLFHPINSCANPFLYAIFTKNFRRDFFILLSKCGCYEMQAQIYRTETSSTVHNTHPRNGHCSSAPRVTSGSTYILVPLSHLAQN
In words: hFSHR CHO cAMP assay (rhFSHR-cLUC cells, FSH-stimulated cAMP, radioimmunoassay). The format is cell-based. To be noted: inhibition of cAMP produced by EC70 dose of FSH (4.85 nM); maximum concentration 50 μM. From the text: Minimum Essential Medium-Alpha (MEM-alpha), fetal bovine serum (FBS), penicillin, streptomycin, geneticin, trypsin-EDTA, Hanks' Balanced Salt Solution (no Calcium chloride, Magnesium chloride, Magnesium sulfate, or phenol red; Ca-Mg free HBSS) were purchased from Gibco BRL (Gaithersburg, Md.). The cells used for the FSH bioassay (rhFSHR-cLUC) were Chinese Hamster Ovary cells (K-1; ATCC) stably transformed with human FSH receptor (pSVK-FSHr) and a cAMP luciferase reporter gene (responsive CGα-180LUC). Follicle Stimulating Hormone (Metrodin; Fertinex) was purchased from Serono, Ltd. (Norwell, Mass.).
The rhFSHR-cLUC cell cultures were maintained in MEM-Alpha supplemented with 10% heat-inactivated FBS (HIFBS), 100 U/ml penicillin, 100 μg/mL streptomycin, and included 0.1 g/L geneticin for stable cell selection.
Forty-eight hours after the cells were plated in sterile 96-well culture plates (Corning, Corning, N.Y.) the spent media was removed and 50 μl assay media (modified growth media with 2% HIFBS) containing 2 mM IBMX (3-isobutyl-1-methyl-xanthine) was added to the cells. Compounds (25 μl) in the appropriate concentration were added followed 5 minutes later by an EC70 dose of FSH (25 μl; 160 ng/ml; 4.85 nM). After 10 minutes @ 22.5° C. (room temperature) the reaction was terminated by addition of 25 μL 0.5 N hydrochloric acid to each well. The amount of cAMP produced was measured by radioimmunoassay in a FlashPlate (DuPont, Boston, Mass.). To each flash plate 60 μL flash plate buffer was added followed by 40 μL acidified cell sample or cAMP standard, followed with the addition of 100 μl ^125l-cAMP trace. The FlashPlates were sealed, incubated overnight @ room temperature, and counted in a Packard TopCount (Packard Instrument Co., Meriden, Conn.). The cAMP radioimmunoassay results were calculated using DPM conversion and log-logit transformation of % binding (Excel program).
Test compounds were solubilized in 30% dimethyl sulfoxide (DMSO) at a concentration of 10 mM before diluting to appropriate concentrations in assay medium. The final DMSO concentration in the treated cells and in the control cells was 0.75%.
For individual experiments, a set of samples were tested including a vehicle control (assay buffer), a reference compound (hFSH) at a range of concentrations designed to elicit a minimal to maximal response, and several concentrations of test compounds together with an EC70 concentration of standard (hFSH challenge). Each compound was performed in duplicates for the primary evaluation and quadruplicates for the dose-ranging experiments. The cAMP radioimmunoassay raw data (pmol) were calculated to provide average pmol cAMP produced/ml and the percent inhibition was calculated as shown below.
% Inh=[1−(Avg.pmoltest compound+standard)/(Avg.pmolstandard)]×100
EC50 values were calculated from an analysis of the concentration-inhibition data using a linear analysis of the data transformed to a log-logit format.
(In general: cAMP levels reflect the balance of adenylyl cyclase and phosphodiesterase activity.)

`C[C@@H](CN(CC(=O)NCC1CCCC(CN)C1)S(=O)(=O)c1ccc(-c2cccc(F)c2)cc1)c1ccccc1` (stereo partly drawn) [Compound 386] returned an EC50 of 1170 nM.

On to `COc1ccccc1CCN(CC(=O)NCC1CCCC(CN)C1)S(=O)(=O)c1ccc(-c2ccccc2Cl)cc1` (stereo not drawn) [Compound 337], for which a half-maximal effect (EC50) was put at 310 nM.

The compound `Cc1ccccc1-c1ccc(S(=O)(=O)N(CC(=O)NCc2ccc(CN)cc2)CC(C)c2ccccc2)cc1` (stereo not drawn) [Compound 311] came in with an EC50 of 50 nM.

Compound `CCN(CC)Cc1ccc(CNC(=O)CN(CC(C)c2ccccc2)S(=O)(=O)c2ccc(-c3ccccc3Cl)cc2)cc1` (stereo not drawn) [Compound 472] had an EC50 above 50000 nM.

`Cc1ccccc1-c1ccc(S(=O)(=O)N(CC(=O)NCc2ccc(CN(C)C)cc2)C[C@@H](C)c2ccccc2)cc1` [Compound 474] had an EC50 above 50000 nM.

In turn, `COc1ccccc1CCN(CC(=O)NCc1ccc(CN)cc1)S(=O)(=O)c1ccc(-c2cccs2)cc1` [Compound 245] had an EC50 of 5630 nM.

Regarding `C[C@@H](CN(CC(=O)NCC1CCCC(CN)C1)S(=O)(=O)c1ccc(-c2ccccc2Cl)cc1)c1ccccc1` (stereo partly drawn) [Compound 385], the EC50 worked out at 330 nM.

`Cc1ccccc1-c1ccc(S(=O)(=O)N(CC(=O)NCc2cccc(CN)c2)C[C@H](C)c2ccccc2)cc1` [Compound 390]: the EC50 was determined as 230 nM.

In the case of `C[C@@H](CN(CC(=O)NCCCCCCN)S(=O)(=O)c1ccc(-c2ccccc2Cl)cc1)c1ccccc1` [Compound 397], the EC50 stood at 50 nM.

The compound `COc1ccccc1CCN(CC(=O)NCC1CCCC(CN)C1)S(=O)(=O)c1ccc(-c2ccccc2OC)cc1` (stereo not drawn) [Compound 338] gave an EC50 of 440 nM.

`C[C@@H](CN(CC(=O)NCc1ccc(CN(C)C)cc1)S(=O)(=O)c1ccc(-c2ccccc2Cl)cc1)c1ccccc1` [Compound 471] returned an EC50 of 50000 nM.

As to `C[C@H](CN(CC(=O)NCc1ccc(CN)cc1)C(=O)c1ccc(-c2ccccc2Cl)cc1)c1ccccc1` [Compound 477], the response was half-maximal at 7700 nM (EC50).

For `C[C@@H](CN(CC(=O)NCc1ccc(CN)cc1)S(=O)(=O)c1ccc(C(C)(C)C)cc1)c1ccccc1` [Compound 555], the EC50 was determined as 1930 nM.

`COc1ccccc1CCN(CC(=O)N1CCNCC1)S(=O)(=O)c1ccc(-c2ccccc2C)cc1` [Compound 151] came in with an EC50 of 9790 nM.

`C[C@@H](CN(CC(=O)NCCCCCN)S(=O)(=O)c1ccc(-c2ccccc2Cl)cc1)c1ccccc1` [Compound 379]: the EC50 was at least 50000 nM.

Take `COc1ccc(CCN(CC(=O)NCCCCCCN)S(=O)(=O)c2ccc(-c3ccccc3Cl)cc2)cc1` [Compound 502]: it took 300 nM to reach a half-maximal effect (EC50).

`Cc1ccccc1-c1ccc(S(=O)(=O)N(CC(=O)NCc2ccc(CN)cc2)C2CC2c2ccccc2)cc1` (stereo not drawn) [Compound 320] registered an EC50 of 2570 nM.

For `CCN(CC)Cc1ccc(CNC(=O)CN(C[C@@H](C)c2ccccc2)S(=O)(=O)c2ccc(-c3ccccc3C)cc2)cc1` [Compound 475], the EC50 worked out at 9460 nM.

Compound `C[C@H](CN(CC(=O)NCC1CCCC(CN)C1)S(=O)(=O)c1ccc(-c2ccccc2Cl)cc1)c1ccccc1` (stereo partly drawn) [Compound 388] returned an EC50 of 900 nM.

Compound `C[C@@H](CN(CC(=O)NCCCCCN)S(=O)(=O)c1ccc(-c2cccc(F)c2)cc1)c1ccccc1` [Compound 380] yielded an EC50 of 1200 nM.

As to `CC(=O)NCc1ccc(CNC(=O)CN(C[C@H](C)c2ccccc2)S(=O)(=O)c2ccc(-c3ccccc3Cl)cc2)cc1` [Compound 473], the concentration giving a half-maximal response (EC50) was above 50000 nM.

Turning to `Cc1ccccc1-c1ccc(S(=O)(=O)N(CC(=O)NCC2CCC(CN)CC2)C[C@H](C)c2ccccc2)cc1` (stereo partly drawn) [Compound 372], the EC50 stood at 190 nM.

Compound `COc1ccccc1CCN(CC(=O)NCc1cccc(CN)c1)S(=O)(=O)c1ccc(-c2ccccc2C)cc1` [Compound 344] yielded an EC50 of 700 nM.

`COc1ccccc1CCN(CC(=O)NCCCCCCN)S(=O)(=O)c1ccc(-c2ccccc2C)cc1` [Compound 352] yielded an EC50 of 110 nM.

In turn, `COc1ccccc1CCN(CC(=O)NCC1CCCC(CN)C1)S(=O)(=O)c1ccc(-c2ccccc2C)cc1` (stereo not drawn) [Compound 336] came in with a 50% effective concentration (EC50) of 980 nM.

Compound `COc1ccccc1CN(CC(=O)NCC1CCCC(CN)C1)S(=O)(=O)c1ccc(-c2ccccc2C)cc1` (stereo not drawn) [Compound 340] gave an EC50 of 650 nM.

`C[C@@H](CN(CC(=O)N1CCC(C2CCNCC2)CC1)S(=O)(=O)c1ccc(-c2ccccc2Cl)cc1)c1ccccc1` [Compound 367] had an EC50 of 1020 nM.

With `COc1ccccc1CN(CC(=O)NCC1CCCC(CN)C1)S(=O)(=O)c1ccc(-c2ccc(Cl)cc2Cl)cc1` (stereo not drawn) [Compound 343], the midpoint of the response, the EC50, lay at 530 nM.

As for `CC(=O)NCc1ccc(CNC(=O)CN(CC(C)c2ccccc2)S(=O)(=O)c2ccc(-c3ccccc3C)cc2)cc1` (stereo not drawn) [Compound 476], the EC50 was at least 50000 nM.

`COc1ccccc1CCN(CC(=O)NCCCCCCN)S(=O)(=O)c1ccc(-c2ccc(Cl)cc2Cl)cc1` [Compound 355] registered an EC50 of 400 nM.

Compound `COc1ccccc1CCN(CC(=O)NCCCCCCN)S(=O)(=O)c1ccc(-c2ccccc2Cl)cc1` [Compound 353] showed an EC50 of 140 nM.

As for `COc1ccccc1CN(CC(=O)N1CCNCC1)S(=O)(=O)c1ccc(-c2ccccc2C)cc1` [Compound 174], the EC50 is at least 50000 nM.

`C[C@@H](CN(CC(=O)NCc1ccc(CN)cc1)C(=O)Nc1ccc(-c2ccccc2)cc1)c1ccccc1` [Compound 590] displayed an EC50 of 2600 nM.

Consider `C[C@H](CN(CC(=O)NCc1ccc(CN)cc1)S(=O)(=O)c1ccc(-c2cccc(F)c2)cc1)c1ccccc1` [Compound 213], for which the EC50 is 70 nM.

As for `CC(CN(CC(=O)NC1CCC(CC2CCC(N)CC2)CC1)S(=O)(=O)c1ccc(-c2ccccc2Cl)cc1)c1ccccc1` (stereo not drawn) [Compound 497], the EC50 stood at 4040 nM.

In turn, `COc1ccccc1CCN(CC(=O)NCc1ccc(CN)cc1)S(=O)(=O)c1ccccc1-c1ccccc1C` [Compound 218] registered a concentration for a half-maximal effect (EC50) of 1200 nM.

In the case of `COc1ccccc1CCN(CC(=O)NCC1CCCC(CN)C1)S(=O)(=O)c1ccc(-c2ccc(Cl)cc2Cl)cc1` (stereo not drawn) [Compound 339], a half-maximal effect (EC50) was put at 1100 nM.

In turn, `C[C@H](CN(CC(=O)NCCCCCCN)S(=O)(=O)c1ccc(-c2cccc(F)c2)cc1)c1ccccc1` [Compound 401] returned a half-maximal effective concentration (EC50) of 1360 nM.

The compound `COc1ccccc1CN(CC(=O)NCC1CCCC(CN)C1)S(=O)(=O)c1ccc(-c2ccccc2Cl)cc1` (stereo not drawn) [Compound 341] displayed an EC50 of 570 nM.
